The values below come from patent publication US8329895B2, “Cefdinir acid double salt and method for producing the same” (Zhejiang Adamerck Biopharmlabs Inc., priority 2008, dated 2012).

Where a name gives a salt, the structure may show the parent alone. Read-outs that look alike come from different tables or passages of the source.

A short description of series [1]: Solubility of cefdinir and the double salts in water. The class given is physicochemical. An excerpt:
The solubility of the compounds of the invention has been increased by 100 times. Table 1 lists the solubility of the compounds of the invention.)

Series [2] in a line: Bioavailability comparison in beagles, capsules by intragastric administration, cefdinir concentration in venous blood. As to conditions: for Time to peak / AUC(0-10) / Cmax / AUC(0-t): capsules containing 200 mg of cefdinir, intragastric administration; for Bioavailability percentage increase: compared with conventional cefdinir capsule; for AUC(0-10) / AUC(0-t): 0-10 h; for Cmax: cefdinir in venous blood. In kind it is in vivo. Here is the method:
Beagles, half male and half female, with body weight of 10 kg, were starved for 12 hrs and only water fed. The compounds of the invention were formulated into capsules containing 200 mg of cefdinir and fed to beagles by intragastric administration. The control group was administered with conventional cefdinir capsules. 3 hrs later, the beagles were fed with common food. At 0 h, 0.5 h, 1 h, 1.5 h, 2 h, 2.5 h, 3 h, 4 h, 6 h, 8 h, and 10 h after intragastric administration, 0.5 mL of venous blood was collected respectively to measure the concentration of cefdinir.

For series [3] the following is noted: heating; salt disclosed in CN 1,415,615A; cited from earlier work.
For series [4] the following is noted: background statement; cited from earlier work.
For series [5] the following is noted: cited from earlier work.
[6] abbreviates: both sexes, beagle, dog, venous blood, po, 200 mg.
The mark [7] stands for this setting: both sexes, beagle, dog, venous blood, po, 200 mg, read-out: Cmax.

With `C=CC1=C(C(=O)O)N2C(=O)C(NC(=O)/C(=N\O)c3csc(N)n3)C2SC1` (single isomer, unassigned; (-)) [Cefdinir sodium(0.5) hydrogen(1.5) sulfate], in series [1], the Solubility result was “Soluble”. In addition, in series [2], the Time to peak amounted to 3 h and the Bioavailability percentage increase is 135%.
Usually Cmax stands for the maximum level reached in the sampled fluid or tissue. With `C=CC1=C(C(=O)O)N2C(=O)C(NC(=O)/C(=N\O)c3csc(N)n3)C2SC1` (single isomer, unassigned; (-)) [Cefdinir ammonium(0.5) hydrogen(1.5) sulfate], the Solubility result in series [1] is “Soluble”. Besides, in series [2], the Time to peak was found to be 2.5 h, the “AUC(0-10)” value was determined as 160.31 µg·h/mL, the peak concentration (Cmax) came out at 34120 ng/mL and the Bioavailability percentage increase is given as 57%.
The matching figures for `C=CC1=C(C(=O)O)N2C(=O)C(NC(=O)/C(=N\O)c3csc(N)n3)C2SC1` (single isomer, unassigned; (-)) [Cefdinir potassium(0.5) hydrogen(1.5) sulfate]: “Soluble”, 3 h, 213.40 µg·h/mL, 47650 ng/mL and 109%.
For orientation: AUC(0-t) means the area under the concentration-time curve up to a stated or last time point. Lower therefore signals less exposure. Molecule `C=CC1=C(C(=O)O)N2C(=O)C(NC(=O)/C(=N\O)c3csc(N)n3)C2SC1` (single isomer, unassigned; (-)) showed an AUC(0-t) in series [2] (setting [6]) of 240 µg·h/mL. The Cmax in series [2] (setting [7]) came to 50200 ng/mL.
In the case of `C=CC1=C(C(=O)O)N2C(=O)[C@@H](NC(=O)/C(=N\O)c3csc(N)n3)[C@H]2SC1` [Cefdinir sodium hydrogen sulfate, (−)-(6R,7R)-7-((Z)-2-(2-aminothiazole-4-yl)-2-hydroxyimino-acetylamino)-8-oxo-3-vinyl-5-thia-1-azabicyclo(4.2.0)oct-2-ene-2-carboxylic acid sodium hydrogen sulfate], the Solubility result in series [1] (sodium hydrogen sulfate) is on record as “Slightly soluble”. In series [2] (sodium hydrogen sulfate), the “AUC(0-10)” value was 255.27 µg·h/mL, the Cmax was found to be 65430 ng/mL, the Time to peak amounted to 3 h and the Bioavailability percentage increase came to 149%.
Consider `C=CC1=C(C(=O)O)N2C(=O)[C@@H](NC(=O)/C(=N\O)c3csc(N)n3)[C@H]2SC1` [Cefdinir sodium dihydrogen phosphate, (−)-(6R,7R)-7-((Z)-2-(2-aminothiazole-4-yl)-2-hydroxyimino-acetylamino)-8-oxo-3-vinyl-5-thia-1-azabicyclo(4.2.0)oct-2-ene-2-carboxylic acid sodium dihydrogen phosphate], for which the Solubility result in series [1] (phosphate) was “Slightly soluble”. Also, in series [2] (phosphate), the “AUC(0-10)” value stood at 123.55 µg·h/mL, the highest concentration (Cmax) is 27280 ng/mL, the Time to peak came to 2.5 h and the Bioavailability percentage increase was determined as 20%.
For the molecule `C=CC1=C(C(=O)O)N2C(=O)[C@@H](NC(=O)/C(=N\O)c3csc(N)n3)[C@H]2SC1` [Cefdinir potassium hydrogen sulfate, (−)-(6R,7R)-7-((Z)-2-(2-aminothiazole-4-yl)-2-hydroxyimino-acetylamino)-8-oxo-3-vinyl-5-thia-1-azabicyclo(4.2.0)oct-2-ene-2-carboxylic acid potassium hydrogen sulfate], the Solubility result in series [1] (potassium hydrogen sulfate) is reported as “Slightly soluble”. The same molecule gave an area under the curve AUC(0-t) in series [2] (setting [6]) of 261 µg·h/mL. Also, in series [2] (setting [7]), the Cmax was 54100 ng/mL. Moreover, in series [2] (potassium hydrogen sulfate), the Time to peak was found to be 2.5 h and the Bioavailability percentage increase turned out to be 156%.
In the case of `C=CC1=C(C(=O)O)N2C(=O)[C@@H](NC(=O)/C(=N\O)c3csc(N)n3)[C@H]2SC1` [Cefdinir potassium dihydrogen phosphate, (−)-(6R,7R)-7-((Z)-2-(2-aminothiazole-4-yl)-2-hydroxyimino-acetylamino) 8-oxo-3-vinyl-5-thia-1-azabicyclo(4.2.0)oct-2-ene-2-carboxylic acid potassium dihydrogen phosphate], in series [2] (phosphate), the “AUC(0-10)” value turned out to be 152.15 µg·h/mL, the Cmax was found to be 30370 ng/mL, the Time to peak is reported as 3 h and the Bioavailability percentage increase worked out at 49%.
As for `C=CC1=C(C(=O)[O-])N2C(=O)C(NC(=O)C(=NO)c3csc(N)n3)C2SC1.[Na+]` (stereo not drawn) [sodium cefdinir], in series [3], the “Temperature at which the salt turns black” value was 190 °C and the “Temperature at which the salt turns yellow” value was “about 160 °C”.
The bioavailability is dose-corrected exposure relative to a reference, in per cent. For `C=CC1=C(C(=O)O)N2C(=O)[C@@H](NC(=O)/C(=N\O)c3csc(N)n3)[C@H]2SC1` [Cefdinir], the Solubility result in series [1] is reported as “hardly soluble”. Besides, the Solubility in water entry in series [4] is recorded as “insoluble”. For the same molecule, the bioavailability in series [5] (capsule) was 16-20%; in series [5] (liquid suspension), 25%.
`C=CC1=C(C(=O)O)N2C(=O)[C@@H](NC(=O)/C(=N\O)c3csc(N)n3)[C@H]2SC1` [Cefdinir ammonium hydrogen sulfate, (−)-(6R,7R)-7-((Z)-2-(2-aminothiazole-4-yl)-2-hydroxyimino-acetylamino)-8-oxo-3-vinyl-5-thia-1-azabicyclo(4.2.0)oct-2-ene-2-carboxylic acid ammonium hydrogen sulfate]: the Solubility entry in series [1] (ammonium hydrogen sulfate) is reported as “Slightly soluble”. Besides, in series [2] (ammonium hydrogen sulfate), the “AUC(0-10)” value is 202.18 µg·h/mL, the Time to peak is recorded as 3 h, the Cmax turned out to be 43630 ng/mL and the Bioavailability percentage increase stood at 98%.
